Values of other authors, collected in patent EP0986632B1, “DELIVERY SYSTEMS” (THE PROCTER & GAMBLE COMPANY, priority 1997, dated 1998).

Details: 25°C; from M. L. Tobe, Adv. Inorg Bioinorg. Mech. (1983), 2, Table 1 at page 17

Point of comparison: `O=CO` [formate], “base hydrolysis rates (kOH)” value 0.00058 M⁻¹ s⁻¹. Against it:
- oxalate — 2.3-fold lower, 0.00025 M⁻¹ s⁻¹
- N#CS [NCS^-] — within 1.5-fold, 0.0005 M⁻¹ s⁻¹
- CC(=O)O [acetate] — 1.7-fold higher, 0.00096 M⁻¹ s⁻¹
